According to ChEMBL document CHEMBL2057079, “Activity-based fluorescent probes for monitoring sulfatase activity” (Bioorg Med Chem Lett, 2012):
Active and inactive are the calls of the source. The calls are words filed in the database; no cut-off is given here.

Species: Homo sapiens
Experiment: Binding affinity to arylsulfatase assessed as fluorescence quenching at 10 uM at pH 7.5 after 1.5 hrs by fluorescence spectrophotometry

In the case of CN(C)c1cccc2c(S(=O)(=O)NCC(O)c3ccc(OS(=O)(=O)O)cc3)cccc12 (stereo unspecified), the Activity is reported as “inactive”.
